Values quoted from earlier work, collected in patent publication US20060147526A1, “Pharmaceutical formulations comprising ß-2 adrenoreceptor agonists and xanthines” (CIPLA LIMTED, priority 2002, published 2006).

Legend:
[1] = inhalation
[2] = in vivo

Row | SMILES | persistent bronchodilation lasting [1] | duration of action [2]
1 | OCc1cc(C(O)CNCCCCCCOCCCCc2ccccc2)ccc1O (centres unmarked) [salmeterol] | over 12 hours | 
2 | CN(C)C(=O)Oc1cc(OC(=O)N(C)C)cc(C(O)CNC(C)(C)C)c1 (centres unmarked) [bambuterol, 5-[2-(tert-butylamino)-1-hydroxyethyl]-m-phenylene-bis(dimethylcarbamate)] |  | 24 h
